The data set has as its system normal primary human hepatocytes (PHH).

Structures are written as SMILES.

Take `CC(CCC[C@@H](C)[C@H]1CC[C@H]2[C@@H]3CC=C4C[C@@H](O)CC[C@]4(C)[C@H]3CC[C@]12C)C(=O)O` (stereo partly drawn) [CA, 3β-hydroxy-5-cholestenoic acid]: the “death of normal primary human hepatocytes” value was “not the death”.

These data come from patent US20260137701A1, “CHOLESTENOIC ACID (CA) AND A SULFATED DERIVATIVE THEREOF, 3[BETA]-SULFATE-5-CHOLESTENOIC ACID (CA3S), AS ENDOGENOUS EPIGENETIC REGULATORS” (priority 2022, published 2026).
